Our source for the IC50 values is patent publication US20210115036A1, “AZAINDOLES AND METHODS OF USE THEREOF” (GOLDFINCH BIO, INC., priority 2017, published 2021).

Molecules are shown by their SMILES. Where two headings read alike, the source gives them in different places.

This test deals with T1, human TRPC5 (Homo sapiens, UniProt Q9UL62).
T1 construct: expressed in transfected cells; host or cells: HEK 293
T1 sequence (Q9UL62 1-973): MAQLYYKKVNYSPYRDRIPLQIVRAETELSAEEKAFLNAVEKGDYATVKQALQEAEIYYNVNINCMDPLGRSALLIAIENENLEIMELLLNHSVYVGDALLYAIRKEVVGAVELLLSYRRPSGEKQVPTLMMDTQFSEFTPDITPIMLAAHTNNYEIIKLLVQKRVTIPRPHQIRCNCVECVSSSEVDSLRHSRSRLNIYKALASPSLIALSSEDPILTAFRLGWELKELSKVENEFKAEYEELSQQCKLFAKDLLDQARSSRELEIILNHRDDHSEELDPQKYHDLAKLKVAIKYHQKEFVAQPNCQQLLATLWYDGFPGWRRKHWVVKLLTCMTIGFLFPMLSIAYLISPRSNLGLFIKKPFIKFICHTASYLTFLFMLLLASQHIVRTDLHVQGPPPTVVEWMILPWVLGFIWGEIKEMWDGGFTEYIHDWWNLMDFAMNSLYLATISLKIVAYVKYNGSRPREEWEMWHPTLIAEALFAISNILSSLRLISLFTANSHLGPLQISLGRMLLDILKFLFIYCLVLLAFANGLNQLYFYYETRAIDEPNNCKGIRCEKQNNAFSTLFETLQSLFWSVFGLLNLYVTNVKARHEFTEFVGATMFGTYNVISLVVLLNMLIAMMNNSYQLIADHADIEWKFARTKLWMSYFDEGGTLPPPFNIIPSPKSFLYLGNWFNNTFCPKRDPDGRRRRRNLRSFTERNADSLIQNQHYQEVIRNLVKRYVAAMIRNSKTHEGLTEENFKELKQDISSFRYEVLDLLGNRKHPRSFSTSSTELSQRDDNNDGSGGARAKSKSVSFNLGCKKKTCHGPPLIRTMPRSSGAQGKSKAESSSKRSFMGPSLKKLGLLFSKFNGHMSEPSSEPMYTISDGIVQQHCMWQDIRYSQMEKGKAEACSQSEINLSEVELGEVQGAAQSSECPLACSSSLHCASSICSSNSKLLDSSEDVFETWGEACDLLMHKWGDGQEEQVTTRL
The experiment in a line: Automated patch clamp assay (QPatch), current block after stimulation with rosiglitazone. The test is classed as cell-based. The conditions noted are these: HEK293 cells overexpressing TRPC5, whole cell automated patch. The procedure:
HEK 293 cells expressing human TRPC5 were harvested, re-suspended in serum free medium, and added to the automated platform and used within 2-3 hours. Internal and external physiological solutions were freshly prepared prior to the assay. The external solution contained: 145 mM NaCl, 4 mM KCl, 2 mM CaCl2), 1 mM MgCl2, 10 mM HEPES, 10 mM glucose, pH 7.4 with NaOH and 300 mOsm/L. The internal solution contained 120 mM L-aspartic acid, 120 mM CsOH.H2O, 20 mM CsCl, 2 mM MgCl2, 8.8 mM CaCl2), 10 mM EGTA, 10 mM HEPES, 10 mM Glucose, 0.1 mM GTP and 2 mM Na2ATP; pH 7.2 with CsOH and 290 mOsm/L. The free internal Ca2+ concentration was buffered to 1 μM.
The automated electrophysiological platform QPatch 16 from Sophion (Denmark) was used to carry out the compounds profiling. The series resistance and quality of seals were continuously monitored during the experiments. Data was analyzed using Sophion QPatch assay software 5.6 (Odense). IC50 values were calculated using a least squares regression algorithm (Hill equation).
To monitor the ion currents, a voltage ramp from −100 mV to +100 mV, over 300 ms, was applied every 10 seconds, from a holding potential of −60 mV.
After recording for a minimum of 60 seconds control period, Rosiglitazone (30 uM), was applied to activate the channel.

[1] abbreviates: 80 mV, 1-substituted 7-azaindoles, read-out: TRPC5 IC50 80 mV.
Setting [2] is: 100 mV, 1-substituted 7-azaindoles, read-out: TRPC5 IC50 100 mV.
The mark [3] stands for this setting: 100 mV, 7-substituted 7-azaindoles, read-out: TRPC5 IC50 100 mV.

Broadly, the IC50 is the concentration needed to halve the response being measured. For `CCN(CC)Cc1cc2cccnc2n1Cc1ccccc1`, the IC50 by setting is: under setting [1], 6.24 µM; under setting [2], 4.19 µM.

Consider `COC(C)(C)Cc1cc2cccnc2n1Cc1ccccc1`, for which the IC50 under setting [1] is 13.8 µM and the IC50 under setting [2] was 8.52 µM.

On to `c1ccc(Cn2c(CN3CCCC3)cc3cccnc32)cc1`, for which the IC50 came to 17 µM under setting [1] and 16.6 µM under setting [2].

Take `CN(C)Cc1cc2cccnc2n1Cc1ccccc1`: the IC50 stood at 18.3 µM under setting [1] and 21.6 µM under setting [2].

Regarding `Cn1nc(C(F)(F)F)cc1Cn1c(C(C)(C)C)cc2cccnc21`, the IC50 was determined as 19.6 µM under setting [1] and 19.1 µM under setting [2].

`Clc1ccc(Cn2c(CN3CCCC3)cc3cccnc32)cc1`: the IC50 worked out at 23.6 µM under setting [1] and 25.2 µM under setting [2].

On to `CC(C)(C)c1cc2cccnc2n1Cc1ccc(Cl)cc1`, for which the IC50 under setting [1] was over 30 µM.

With `CC(C)(C)Cc1cc2cccnc2n1Cc1ccccc1`, the IC50 runs as follows: under setting [1], over 30 µM; under setting [2], over 30 µM.

Consider `C[C@@H](c1ccccc1)n1c(C(C)(C)C)cc2cccnc21`, for which the IC50 was over 30 µM under setting [1] and over 30 µM under setting [2].

Consider `CC(c1ccccc1)n1c(C(C)(C)C)cc2cccnc21` (stereo not drawn), for which the IC50 under setting [1] is over 30 µM.

On to `C[C@H](c1ccccc1)n1c(C(C)(C)C)cc2cccnc21`, for which the IC50 is, setting by setting: under setting [1], over 30 µM; under setting [2], over 30 µM.

As for `Cc1ccnc2c1cc(C(C)(C)C)n2Cc1ccccc1`, the IC50 under setting [1] was over 30 µM.

Consider `COc1ccc(Cn2c(C(C)(C)C)cc3cccnc32)cc1`, for which the IC50 is over 30 µM under setting [1] and over 30 µM under setting [2].

On to `OCCc1cc2cccnc2n1Cc1ccccc1`, for which the IC50 is, setting by setting: under setting [1], over 30 µM; under setting [2], over 30 µM.

In the case of `Cc1ccc2cc(C(C)(C)C)n(Cc3ccccc3)c2n1`, the 50% inhibitory concentration (IC50) under setting [1] was over 30 µM.

Regarding `COc1cccc(Cn2c(C(C)(C)C)cc3cccnc32)c1`, the IC50 was over 30 µM under setting [1] and over 30 µM under setting [2].

For `CN(C)CCc1cc2cccnc2n1Cc1ccccc1`, the IC50 was over 30 µM under setting [1] and over 30 µM under setting [2].

For the compound `CC(C)(C)c1cc2cccnc2n1Cc1cncc(F)c1`, the IC50 runs as follows: under setting [1], over 30 µM; under setting [2], over 30 µM.

As for `CC(C)(O)Cc1cc2cccnc2n1Cc1ccccc1`, the IC50 reads like this: under setting [1], over 30 µM; under setting [2], over 30 µM.

On to `COCCc1cc2cccnc2n1Cc1ccccc1`, for which the IC50 is over 30 µM under setting [1] and over 30 µM under setting [2].

Take `CC(C)(C)c1cc2cccnc2n1Cc1ccncc1`: the IC50 is over 30 µM under setting [1] and over 30 µM under setting [2].

Take `CC(C)(C)c1cc2cccnc2n1Cc1ccc(Cl)cc1C#N`: under setting [1], the IC50 is over 30 µM.

Take `COC(C)(C)c1cc2cccnc2n1Cc1ccccc1`: the IC50 was over 30 µM under setting [1] and over 30 µM under setting [2].

Turning to `CC(C)(C)c1cc2cccnc2n1Cc1cccnc1`, the IC50 was over 30 µM under setting [1] and over 30 µM under setting [2].

As to `Cc1cc2cccnc2n1Cc1ccccc1`, under setting [1], the IC50 was over 30 µM.

As for `COc1cc(Cl)ccc1Cn1c(C(C)(C)C)cc2cccnc21`, under setting [1], the IC50 was over 30 µM.

`Cc1ccc2cc(C(C)(C)C)n(C(=O)c3ccccc3)c2n1`: the IC50 under setting [1] was over 30 µM.

Consider `CC(C)(C)c1cc2cccnc2n1Cc1ccc(Cl)cn1`, for which the IC50 under setting [1] is over 30 µM.

`Cc1cc2cccnc2n1Cc1ccc(Cl)cc1`: the concentration for half-maximal inhibition (IC50) under setting [1] is over 30 µM.

Regarding `OCc1cc2cccnc2n1Cc1ccccc1`, the IC50 is, setting by setting: under setting [1], over 30 µM; under setting [2], over 30 µM.

Take `Cc1ncc(Cn2c(C(C)(C)C)cc3cccnc32)cn1`: under setting [1], the IC50 was over 30 µM.

Regarding `CC(C)(C)c1cc2c(OCCCO)ccnc2n1Cc1ccccc1`, the IC50 by setting is: under setting [1], over 30 µM; under setting [2], over 30 µM.

With `CC(C)(C)c1cc2ccc(OCCO)nc2n1Cc1ccccc1`, under setting [1], the IC50 was over 30 µM.

In the case of `Cn1cc(Cn2c(C(C)(C)C)cc3cccnc32)cn1`, the IC50 was over 30 µM under setting [1] and over 30 µM under setting [2].

On to `CC(C)(C)c1cc2cc(OCCCO)cnc2n1Cc1ccccc1`, for which the IC50 under setting [1] is over 30 µM and the IC50 under setting [2] is over 30 µM.

On to `CC(C)(C)c1cc2ccc(OCCCO)nc2n1Cc1ccccc1`, for which the IC50 under setting [1] is over 30 µM.

Consider `Cc1nn(C)cc1Cn1c(C(C)(C)C)cc2cccnc21`, for which the concentration for half-maximal inhibition (IC50) under setting [1] is over 30 µM and the IC50 under setting [2] was over 30 µM.

`Cc1noc(C)c1Cn1c(C(C)(C)C)cc2cccnc21`: the IC50 was over 30 µM under setting [1] and over 30 µM under setting [2].

`Cn1cc(Cn2c(C(C)(C)C)cc3cccnc32)c(C(F)(F)F)n1`: the IC50 is over 30 µM under setting [1] and over 30 µM under setting [2].

On to `CC(C)(C)c1cc2cccnc2n1CC1CCCCC1`, for which the IC50 under setting [1] is over 30 µM.

As for `CC(C)(C)c1cc2cccnc2n1CCc1ccccc1`, the IC50 under setting [1] is over 30 µM.

`CC(C)(C)c1cc2cccnc2n1CCOc1ccccc1`: the IC50 under setting [1] is over 30 µM.

Consider `CC(C)(C)c1cc2cccnc2n1CC1CCOCC1`, for which the IC50 under setting [1] is over 30 µM.

For `CC(C)(C)c1cc2cccnc2n1CCCc1ccccc1`, the IC50 under setting [1] is over 30 µM.

For the compound `CN1CCC(Cn2c(C(C)(C)C)cc3cccnc32)CC1`, the IC50 under setting [1] is over 30 µM.

In the case of `CC(C)(C)c1cc2cccnc2n1CC1CCNCC1`, the IC50 under setting [1] is over 30 µM.

Turning to `CC(C)(C)c1cc2cccnc2n1CC1CCN(Cc2ccccc2)CC1`, the IC50 under setting [1] was over 30 µM.

In the case of `CC(=O)N1CCC(Cn2c(C(C)(C)C)cc3cccnc32)CC1`, under setting [1], the IC50 is over 30 µM.

Consider `CC(C)(C)c1cc2cccnc2n1CC1CCN(S(C)(=O)=O)CC1`, for which, under setting [1], the IC50 is over 30 µM.

Consider `COc1ccc(Cn2cccc3cc(C(C)(C)C)nc2-3)cc1`, for which the IC50 under setting [3] is 5.47 µM.

As for `CC(C)(C)c1cc2cccn(Cc3cncc(F)c3)c-2n1`, the IC50 under setting [3] came to 7.64 µM.

With `Cn1cc(Cn2cccc3cc(C(C)(C)C)nc2-3)cn1`, the IC50 under setting [3] was 9.79 µM.

For `Cn1cc(Cn2cccc3cc(C(C)(C)C)nc2-3)c(C(F)(F)F)n1`, the IC50 under setting [3] amounted to 10.4 µM.

On to `Cn1nc(C(F)(F)F)cc1Cn1cccc2cc(C(C)(C)C)nc1-2`, for which the IC50 under setting [3] stood at 12.2 µM.

In the case of `Cc1noc(C)c1Cn1cccc2cc(C(C)(C)C)nc1-2`, the IC50 under setting [3] stood at 15.6 µM.

In the case of `Cc1nn(C)cc1Cn1cccc2cc(C(C)(C)C)nc1-2`, the IC50 under setting [3] was 17.6 µM.

Regarding `CC(C)(C)c1cc2cccn(Cc3ccncc3)c-2n1`, the IC50 under setting [3] was over 30 µM.

Regarding `CC(C)(C)c1cc2cccnc2n1Cc1ccccc1` [drawing 63], the IC50 under setting [1] stood at 3.51 µM.

With `CC(C)(C)c1cc2cccnc2n1Cc1ccccc1` [drawing 65], the IC50 under setting [1] amounted to 7.07 µM.

In the case of `CC(C)Cc1cc2cccnc2n1Cc1ccccc1` [drawing 72], under setting [1], the IC50 was over 30 µM.

With `CC(C)Cc1cc2cccnc2n1Cc1ccccc1` [drawing 73], under setting [2], the IC50 is over 30 µM.

Regarding `CC(C)(O)c1cc2cccnc2n1Cc1ccccc1` [drawing 80], the IC50 under setting [1] is over 30 µM.

On to `CC(C)(O)c1cc2cccnc2n1Cc1ccccc1` [drawing 81], for which the IC50 under setting [2] is over 30 µM.

As for `CC(C)(C)c1cc2cccnc2n1C[C@H]1CC[C@H](C)CC1` [drawing 112], the IC50 under setting [1] is over 30 µM.

On to `CC(C)(C)c1cc2cccnc2n1C[C@H]1CC[C@H](C)CC1` [drawing 113], for which, under setting [2], the IC50 was over 30 µM.

Turning to `CC(C)(C)c1cc2cccn(Cc3ccc(Cl)cc3)c-2n1` [drawing 125], the IC50 under setting [3] turned out to be 6.02 µM.

As for `CC(C)(C)c1cc2cccn(Cc3ccc(Cl)cc3)c-2n1` [drawing 127], the IC50 under setting [3] was 8.1 µM.

On to `COc1cccc(Cn2cccc3cc(C(C)(C)C)nc2-3)c1` [drawing 128], for which the IC50 under setting [3] was found to be 8.57 µM.

Consider `COc1cccc(Cn2cccc3cc(C(C)(C)C)nc2-3)c1` [drawing 130], for which the IC50 under setting [3] is 10.2 µM.

As to `CC(C)(C)c1cc2cccn(Cc3cccnc3)c-2n1` [drawing 133], the IC50 under setting [3] stood at 14 µM.
